Assay results from US9266838B2, “Substituted (E)-N′-(1-phenylethylidene)benzohydrazide analogs as histone demethylase inhibitors” (University of Utah Research Foundation, priority 2011, dated 2016).

Tests used:
heme oxygenase 1 (HMOX1) = assay: Expression array experiments (transcriptional changes); assay type: cell-based; settings: multiple cell lines; data not shown
LSD1 = LSD1 (Homo sapiens, UniProt O60341); assay: LSD1 histone demethylase assay (LSD1 Inhibitor Screening Assay Kit); assay type: biochemical
Description: Briefly, test compounds were diluted to 20× the desired test concentration in 100% DMSO and 2.5 μL of the diluted drug sample was added to a black 384-well plate. The LSD1 enzyme stock was diluted 17-fold with assay buffer and 40 μM of the diluted LSD1 enzyme was added to the appropriate wells.
(§1) IC50 values are determined using GraphPad Prism 5 software. The data were entered as an X-Y plot into the software as percent inhibition for each concentration of the drug. The concentration values of the drug were log transformed and the nonlinear regression was carried out using the “sigmoidal dose-response (variable slope)” option within the GraphPad software to model the data and calculate IC50 values.

T-47D cells = assay: Cell viability assay (ATPlite), T-47D; assay type: cell-based; settings: Homo sapiens, T47D, 96 hours, read-out: Cell Growth, IC50
Description: Cells were cultured according to the procedures provided. […] Cells were cultured at 37° C. and 5% CO2.
Cell viability was determined using ATPlite™ Luminescence Assay System (PerkinElmer Inc., Waltham, Mass.) using the various cell-lines described above and in Table 4. Briefly, cells were seeded in 96-well plates and then treated with different concentrations of inhibitor (0.1% final DMSO concentration). After 96-hours of incubation, ATPlite detection reagent was added directly to the culture well. Luminescence was read 5 minutes later on an Envision microplate reader.
as §1

## C/C(=N\NC(=O)c1cccc(S(=O)(=O)N2CCOCC2)c1)c1cc(Cl)ccc1O [Compound 12, (E)-N′-(1-(5-chloro-2-hydroxyphenyl)ethylidene)-3-(morpholinosulfonyl)benzohydrazide]
Heme oxygenase 1 (HMOX1)
  transcriptional change of HMOX1: one of the most consistently up-regulated genes

## C/C(=N\NC(=O)c1cccc(S(=O)(=O)N2CCC(C)CC2)c1)c1cc(Cl)ccc1O [Compound 26, (E)-N′-(1-(5-chloro-2-hydroxyphenyl)ethylidene)-3-((4-methylpiperidin-1-yl)sulfonyl)benzohydrazide]
LSD1
  IC50: 9.5 nM

## C/C(=N\NC(=O)c1cccc(S(=O)(=O)N2CCN(C)CC2)c1)c1cc(Cl)ccc1O [Compound 35, (E)-N′-(1-(5-chloro-2-hydroxyphenyl)ethylidene)-3-((4-methylpiperazin-1-yl)sulfonyl)benzohydrazide]
LSD1
  IC50: < 10 nM

## CNS(=O)(=O)c1cccc(C(=O)N/N=C(\C)c2cc(Cl)ccc2O)c1 [Compound 29, (E)-3-(2-(1-(5-chloro-2-hydroxyphenyl)ethylidene)hydrazinecarbonyl)-N-methylbenzenesulfonamide]
LSD1
  IC50: 8.7 nM

## C/C(=N\NC(=O)c1cccc(S(=O)(=O)N2CCOCC2)c1)c1cccc(Cl)c1F [Compound 13, (E)-N′-(1-(3-chloro-2-fluorophenyl)ethylidene)-3-(morpholinosulfonyl)benzohydrazide]
T-47D cells
  IC50: > 10 µM

## O=C(c1cccc(S(=O)(=O)N2CCOCC2)c1)n1ccc(-c2cc(Cl)ccc2O)n1 [Compound 38, (3-(5-chloro-2-hydroxyphenyl)-1H-pyrazol-1-yl)(3-(morpholinosulfonyl)phenyl)methanone]
LSD1
  IC50: > 3000 nM
